Here are results for 25 molecules from publication PMC4506530, “Small-Molecule Inhibitors That Target Protein–Protein Interactions in the RAD51 Family of Recombinases” (Chemmedchem, 2014).

For assay [1], the target named is T1, HumRADA2 (Pyrococcus furiosus, UniProt O74036, D220A/DEL288-314/E219S/I169M/K221M/V202Y/Y201A). The following applies: previously published fragment screening, humanised RadA, cited from earlier work.
For assay [2], the target named is T1, HumRADA2. Put plainly: Isothermal titration calorimetry (ITC), direct binding to HumRADA2. The following applies: for -TDS / DG / DH: ITC thermodynamic binding profile, Table S1; for LLE: LLE=pKD−clog P, clog P calculated with Instant JChem (ChemAxon). The source says: We previously published fragment-screening results using a humanised RAD51 surrogate from Pyrococcus furiosus, which we refer to as HumRADA2 (previously referred to as MAYSAM RadA).[23] In this surrogate protein, the N-terminal domain with the oligomerisation sequence was removed to monomerise the protein and expose the FxxA binding site for screening, and six surface residues were mutated around the Phe pocket in order to humanise the protein in this region.
(§1) Supplemental Experimental Procedures
(§2) C-terminal ATPase domain of P. furiosus RadA (residues 108–349, with deletion of the “L2” loop residues 288–314) was expressed in E.coli and purified as described before using ion-exchange ad size exclusion chromatographies.[1] Purified protein was concentrated to 0.5 mM, flash frozen in liquid nitrogen and stored at -80C. Protein concentration was determined by measuring absorbance at 280 nm in 6M GndHCl and using calculated absorption coefficient […]
(§3) Isothermal Titration Calorimetry
(§4) ITC experiments were performed at 25°C on a MicroCal ITC-200 (GE Healthcare).
(§5) HumRadA2 (humanized RadA) (600 µM in 20 mM MES pH 6.0 with 100 mM NaCl and 0.5 mM EDTA was diluted with Tris buffer (200 mM, pH 7.5 with 100 mM NaCl), and DMSO was added to match to the ligand solution. In titrations with ATP, 5 mM MgCl2 was included in the ligand buffer and the protein buffer. Compounds in DMSO were diluted into the same Tris buffer to give a final concentration of 0.6–10 mM ligand in 10% DMSO and Tris buffer. Care was taken to ensure that the DMSO concentrations in the protein and ligand solutions were well matched so as to avoid artefacts arising from heats of dilution of DMSO. In a typical experiment, protein (60 µM) was loaded in the sample cell, and 16 injections (2.4 µL) of 4.8 s duration were made at 80 s intervals from a syringe loaded with ligand (0.6–10 mM) and rotating at 1000 rpm. In all titrations, an initial injection of ligand (0.4 µL) was made and discarded during data analysis. Control titrations of ligand to buffer were performed and […]
(§6) The thermodynamic parameters were obtained by fitting the data to a single-site-binding model by using Origin software and fixing the stoichiometry as 1.0 for […]

The test system of another assay is wild-type RadA. As to the kind of experiment: ITC, direct binding to unhumanised wild-type RadA. The following applies: unhumanised wild-type RadA protein. Also on record: species or system Pyrococcus furiosus.
Assay [3] deals with T1, HumRADA2. Put plainly: Competitive ITC experiments to HumRADA2 (ligand titrated in the presence of compound). The assay is classed as binding. The following applies: protein pre-incubated with compound (200 μM 5 c). The method, then: The KD measurement of each ligand was then repeated, but in the presence of 200 μM 5 c (bottom row titrations, Figure 2 B).
as §1, §2, §3, §4, §5, §6

The mark [4] stands for this setting: tryptophan ester series (Table 1).
Setting [5] is: substituted tryptamine series (Table 2).
The mark [6] stands for this setting: ITC against apo protein, in the absence of 5 c, read-out: KD.

Entries after “also recorded” stand apart in the source; their conditions may differ. Like-named read-outs stand apart in the source and are kept apart here. Bounds are passed on as bounds.

`COC(=O)c1cccc2[nH]ccc12` [4-methyl ester indole]: the Kd – broadly, the free concentration of one partner at which half of the binding sites on the other are occupied at equilibrium, for simple one-to-one binding – on HumRADA2 [1] (read-out: KD) is 1300 µM.

As to `Cl.N[C@@H](Cc1c[nH]c2ccccc12)C(=O)OCCc1ccccc1` [5 c], at HumRADA2 [2], the Kd is 35 ± 4 µM, the “-TDS” value is -3.3 kcal/mol, the DG is -6.0 kcal/mol and the DH was -2.7 kcal/mol. Moreover, at HumRADA2 [2] (setting [4]), the LLE is recorded as 1.1 and the “LE (ligand efficiency)” value is on record as 0.26 kcal mol−1 per heavy atom. Also, the “binding to wild-type RadA” value with wild-type RadA was “no binding”. Also, on HumRADA2 [3], the “competition with binding of Ac-FHTA-NH2 tetrapeptide” value was “competes with and blocks the binding; also recorded: shows competition with the FxxA binding site”; the “competition with binding of the RadA self-oligomerisation peptide” value is “competes with and blocks the binding; also recorded: shows competition with the FxxA binding site”; the “effect on binding of ATP” value was “not affected; also recorded: not the ATP binding site”.

For the molecule `O=S(=O)(NCCc1c[nH]c2ccccc12)c1ccc(Br)cc1` [7 c], the Kd on HumRADA2 [2] amounted to 92 ± 22 µM. Also, at HumRADA2 [2] (setting [5]), the LLE is recorded as 0.4 and the “LE (ligand efficiency)” value is listed as 0.25 kcal mol−1 per heavy atom.

In turn, `O=S(=O)(NCCc1c[nH]c2ccccc12)c1ccccc1Br` [7 d] registered a Kd at HumRADA2 [2] of 3.1 ± 0.1 µM. Moreover, on HumRADA2 [2] (setting [5]), the LLE is 1.8 and the “LE (ligand efficiency)” value came out at 0.34 kcal mol−1 per heavy atom.

With `O=[N+]([O-])c1cccc(S(=O)(=O)NCCc2c[nH]c3ccccc23)c1` [7 e], at HumRADA2 [2], the Kd was determined as 18 ± 4 µM. At HumRADA2 [2] (setting [5]), the LLE is on record as 1.9 and the “LE (ligand efficiency)” value is given as 0.27 kcal mol−1 per heavy atom.

In turn, `Nc1cccc(S(=O)(=O)NCCc2c[nH]c3ccccc23)c1` [7 f] returned a Kd at HumRADA2 [2] of 31 ± 6 µM. Also, at HumRADA2 [2] (setting [5]), the LLE is on record as 2.4 and the “LE (ligand efficiency)” value stood at 0.28 kcal mol−1 per heavy atom.

`COc1ccc(S(=O)(=O)NCCc2c[nH]c3ccccc23)cc1` [7 g] had a Kd on HumRADA2 [2] of 120 ± 10 µM. At HumRADA2 [2] (setting [5]), the LLE is recorded as 1.2 and the “LE (ligand efficiency)” value was determined as 0.23 kcal mol−1 per heavy atom.

As for `CS(=O)(=O)NCCc1c[nH]c2ccccc12` [7 i], the Kd at HumRADA2 [2] is above 200 µM. Also, the KD entry at HumRADA2 [2] (ITC, substituted tryptamine sulfonamide series (Table 2), error from fitting a single-site binding model) is “No activity was detectable”.

For `O=S(=O)(NCCc1c[nH]c2ccccc12)c1cccs1` [7 j], on HumRADA2 [2], the affinity, expressed as Kd, was 16 ± 6 µM. On HumRADA2 [2] (setting [5]), the LLE is 1.9 and the “LE (ligand efficiency)” value is 0.33 kcal mol−1 per heavy atom.

Take `O=S(=O)(NCCc1c[nH]c2ccccc12)c1ccc(Br)s1` [7 k]: the Kd at HumRADA2 [2] turned out to be 10 ± 1 µM. In addition, at HumRADA2 [2] (setting [5]), the LLE is given as 1.2 and the “LE (ligand efficiency)” value turned out to be 0.32 kcal mol−1 per heavy atom.

For the molecule `O=S(=O)(NCCc1c[nH]c2ccccc12)c1ccc(Cl)s1` [7 l], on HumRADA2 [2], the Kd stood at 13 ± 1 µM. Further, on HumRADA2 [2] (setting [5]), the LLE is on record as 1.3 and the “LE (ligand efficiency)” value stood at 0.32 kcal mol−1 per heavy atom.

`O=S(=O)(NCCc1c[nH]c2ccccc12)c1cc(Br)c(Cl)s1` [7 m]: at HumRADA2 [2], binding was put at a Kd of 1.3 ± 0.1 µM, the “-TDS” value is -2.7 kcal/mol, the DG was -8.1 kcal/mol and the DH was -5.4 kcal/mol. For the same molecule, at HumRADA2 [2] (setting [5]), the LLE is reported as 1.5 and the “LE (ligand efficiency)” value stood at 0.36 kcal mol−1 per heavy atom. Further, on HumRADA2 [3], the “competition with binding of the RadA self-oligomerisation peptide” value was “blockage of the binding”.

For the molecule `O=S(=O)(NCCc1c[nH]c2ccccc12)c1c(Cl)sc(Cl)c1Br` [7 n], at HumRADA2 [2], the Kd stood at 2.3 ± 0.4 µM. Besides, at HumRADA2 [2] (setting [5]), the LLE is reported as 0.6 and the “LE (ligand efficiency)” value turned out to be 0.33 kcal mol−1 per heavy atom.

With `O=S(=O)(NCCc1c[nH]c2ccccc12)c1cc(Br)c(Br)s1` [7 o], at HumRADA2 [2], binding was put at a Kd of 67 ± 29 µM. Besides, at HumRADA2 [2] (setting [5]), the LLE is recorded as −0.4 and the “LE (ligand efficiency)” value turned out to be 0.27 kcal mol−1 per heavy atom.

As for `O=S(=O)(NCCc1c[nH]c2ccccc12)c1cc2ccccc2s1` [7 p], the Kd at HumRADA2 [2] was determined as 1.6 ± 0.6 µM. For the same molecule, on HumRADA2 [2] (setting [5]), the LLE is given as 1.8 and the “LE (ligand efficiency)” value was 0.33 kcal mol−1 per heavy atom.

At HumRADA2 [2], `Cc1noc(C)c1S(=O)(=O)NCCc1c[nH]c2ccccc12` [7 q] registered a Kd of 110 ± 12 µM. Further, on HumRADA2 [2] (setting [5]), the LLE is listed as 2.4 and the “LE (ligand efficiency)” value is 0.25 kcal mol−1 per heavy atom.

In turn, `O=S(=O)(NCCc1c[nH]c2ccccc12)c1ccco1` [7 r] displayed a Kd on HumRADA2 [2] of 18 ± 2 µM. Further, on HumRADA2 [2] (setting [5]), the LLE is 2.6 and the “LE (ligand efficiency)” value was 0.32 kcal mol−1 per heavy atom.

On to `Cn1cnc(S(=O)(=O)NCCc2c[nH]c3ccccc23)c1` [7 s], for which, at HumRADA2 [2], the Kd was found to be 420 ± 74 µM. In addition, on HumRADA2 [2] (setting [5]), the LLE is 1.8 and the “LE (ligand efficiency)” value is 0.22 kcal mol−1 per heavy atom.

In the case of `Nc1ncnc2c1ncn2[C@@H]1O[C@H](COP(=O)(O)OP(=O)(O)OP(=O)(O)O)[C@@H](O)[C@H]1O` [ATP, reference compound], the Kd on HumRADA2 [2] (setting [6]) was determined as 2.5 µM.

As for `COC(=O)[C@@H](N)Cc1c[nH]c2ccccc12` [compound 1, L-tryptophan methyl ester], at HumRADA2 [2], the “-TDS” value is 2.0 kcal/mol, the DG was -4.4 kcal/mol and the DH is -6.4 kcal/mol. In addition, on HumRADA2 [2] (setting [4]), the LLE is given as 1.9 and the “LE (ligand efficiency)” value was found to be 0.28 kcal mol−1 per heavy atom. Also, the Kd at HumRADA2 [1] was 570 µM.

Regarding `CNC(=O)C(N)Cc1c[nH]c2ccccc12` (stereo not drawn) [compound 2], at HumRADA2 [2], the Kd was found to be 1500 ± 24 µM, the “-TDS” value turned out to be 1.3 kcal/mol, the DG is -3.8 kcal/mol and the DH is -5.1 kcal/mol. At HumRADA2 [2] (setting [4]), the LLE is on record as 2.2 and the “LE (ligand efficiency)” value amounted to 0.24 kcal mol−1 per heavy atom.

Turning to `COC(=O)C(Cc1c[nH]c2ccccc12)NC(C)=O` (stereo not drawn) [compound 3], at HumRADA2 [2], binding was characterised by a dissociation constant (Kd) of 810 ± 19 µM, the “-TDS” value turned out to be 0.9 kcal/mol, the DG is -4.2 kcal/mol and the DH was -5.1 kcal/mol. Also, on HumRADA2 [2] (setting [4]), the LLE was 2.0 and the “LE (ligand efficiency)” value is listed as 0.22 kcal mol−1 per heavy atom.

Turning to `CNC(=O)C(Cc1c[nH]c2ccccc12)NC(C)=O` (stereo not drawn) [compound 4], on HumRADA2 [2], binding was put at a Kd of 890 ± 15 µM, the “-TDS” value was 1.6 kcal/mol, the DG is -4.2 kcal/mol and the DH is -5.8 kcal/mol. At HumRADA2 [2] (setting [4]), the LLE is 2.6 and the “LE (ligand efficiency)” value amounted to 0.22 kcal mol−1 per heavy atom.

Take `c1ccc2[nH]ncc2c1` [indazole]: the Kd at HumRADA2 [1] was 1000 µM.

As for Ac-FHTA-NH2 [reference compound], the Kd on HumRADA2 [2] (setting [6]) and at HumRADA2 [1] (read-out: KD) was 250 µM throughout.
